Assay results as given in the supplement of paper PMC11208160.

Experiment: recombinant UMI read abundance after kanamycin selection (control-corrected) (log10(CPM+1)); higher = more efficient recombination; extreme values may be limits of the assay; sequences stand for … in AGTGCAGAGAAAATCGGCCAGTTTTCTCTGCCTGCAGTCCGCATGCCGTGGGACCCCTTGGGTTCTAACCTGTTGCCTAGATTTATGCAGCGGACTGCCTTTCTCCCAAAGTGATAAACCGG…AGGTTGGTTTCACT; site = the 11-nt donor
Outline: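 The measure is log10(CPM+1) for recombinant UMIs. These were PCR-amplified across the donor–target junction and sequenced after Escherichia coli carrying a donor and donor-binding-loop pair library and a target plasmid with T7-inducible IS621 bridge recombinase was plated on IPTG (0.07 mM) plus kanamycin or unselected. CPM were averaged over two replicates and scaled by control-derived factors.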
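Further: IS621 bridge recombinase in Escherichia coli cells against a fixed T5 target plasmid.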

Sequence | recombinant UMI read abundance (log10)
TCCACCGCATGGACCGGTTTTCCCGGTAATCCGTATTTGCA (site TCCACCGCTGG) | 0
TCCACCGCATGGACCGGTTTTCCCGGTAATCCGTATTTGCA (site TCCACCGCTTG) | 0.167
TCCACCGCATGGACCGGTTTTCCCGGTAATCCGTATTTGTG (site TCCACCGCTCA) | 0.0465
TCCACCGCATGGACCGGTTTTCCCGGTAATCCGTATTTGTG (site TCCACCGCTCC) | 0.00628
TCCACCGCATGGACCGGTTTTCCCGGTAATCCGTATTTGTG (site TCCACCGCTCG) | 0.00762
TCCACCGCATGGACCGGTTTTCCCGGTAATCCGTATTTGTG (site TCCACCGCTCT) | 0.0682
TCCACTGCATGGACCGGTTTTCCCGGTAATCCGTATTTGCG (site TCCACAGCTCG) | 0
TCCACTGCATGGACCGGTTTTCCCGGTAATCCGTATTTGCG (site TCCACCGCTCG) | 0
TCCACTGCATGGACCGGTTTTCCCGGTAATCCGTATTTGCG (site TCCACGGCTCG) | 0.00658
TCCACTGCATGGACCGGTTTTCCCGGTAATCCGTATTTGCG (site TCCACTGCTCG) | 0.0111
TCCAGCACATGGACCGGTTTTCCCGGTAATCCGTATTTGTG (site TCCAGCACTCA) | 0.0248
TCCAGCGCATGGACCGGTTTTCCCGGTAATCCGTATTTGCG (site TCCAACGCTCG) | 0
TCCAGCGCATGGACCGGTTTTCCCGGTAATCCGTATTTGCG (site TCCACCGCTCG) | 0.0119
TCCAGCGCATGGACCGGTTTTCCCGGTAATCCGTATTTGCG (site TCCAGCGCTCG) | 0.0428
TCCAGCGCATGGACCGGTTTTCCCGGTAATCCGTATTTGCG (site TCCATCGCTCG) | 0.00909
TCCAGTTCATGGACCGGTTTTCCCGGTAATCCGTATTTGCC (site TCCAATTCTGG) | 0
TCCAGTTCATGGACCGGTTTTCCCGGTAATCCGTATTTGCC (site TCCACTTCTGG) | 0
TCCAGTTCATGGACCGGTTTTCCCGGTAATCCGTATTTGCC (site TCCAGTTCTGG) | 0
TCCAGTTCATGGACCGGTTTTCCCGGTAATCCGTATTTGCC (site TCCATTTCTGG) | 0
TCCATAACATGGACCGGTTTTCCCGGTAATCCGTATTTGGG (site TCCATAACTCC) | 0.008
TCCATGCCATGGACCGGTTTTCCCGGTAATCCGTATTTGAT (site TCCATGCCTAT) | 0
TCCATTCCATGGACCGGTTTTCCCGGTAATCCGTATTTGAT (site TCCATTCCTAT) | 0
TCCCATACATGGACCGGTTTTCCCGGTAATCCGTATTTGCG (site TCCCATACTCG) | 0.00752

Sequence | recombinant UMI read abundance (log10)
TCCCATTCATGGACCGGTTTTCCCGGTAATCCGTATTTGCC (site TCCAATTCTGG) | 0
TCCCATTCATGGACCGGTTTTCCCGGTAATCCGTATTTGCC (site TCCCATTCTGG) | 0
TCCCATTCATGGACCGGTTTTCCCGGTAATCCGTATTTGCC (site TCCGATTCTGG) | 0
TCCCATTCATGGACCGGTTTTCCCGGTAATCCGTATTTGCC (site TCCTATTCTGG) | 0
TCCCCAACATGGACCGGTTTTCCCGGTAATCCGTATTTGTT (site TCCCCAACTAA) | 0.0153
TCCCGCTCATGGACCGGTTTTCCCGGTAATCCGTATTTGCC (site TCCCGCTCTGG) | 0
TCCCTGACATGGACCGGTTTTCCCGGTAATCCGTATTTGGA (site TCCCTGACTTC) | 0.0122
TCCGATTCATGGACCGGTTTTCCCGGTAATCCGTATTTGAG (site TCCGATTCTCT) | 0.00583
TCCGATTCATGGACCGGTTTTCCCGGTAATCCGTATTTGCC (site TCCAATTCTGG) | 0
TCCGATTCATGGACCGGTTTTCCCGGTAATCCGTATTTGCC (site TCCCATTCTGG) | 0
TCCGATTCATGGACCGGTTTTCCCGGTAATCCGTATTTGCC (site TCCGATTCTGG) | 0
TCCGATTCATGGACCGGTTTTCCCGGTAATCCGTATTTGCC (site TCCTATTCTGG) | 0
TCCGCAGCATGGACCGGTTTTCCCGGTAATCCGTATTTGAA (site TCCGCAGCTTT) | 0.0198
TCCGCATCATGGACCGGTTTTCCCGGTAATCCGTATTTGGG (site TCCGCATCTCC) | 0.00533
TCCGCGACATGGACCGGTTTTCCCGGTAATCCGTATTTGTA (site TCCGCGACTTA) | 0.0159
TCCGCTACATGGACCGGTTTTCCCGGTAATCCGTATTTGTC (site TCCGCTACTGA) | 0
TCCGGGCCATGGACCGGTTTTCCCGGTAATCCGTATTTGGG (site TCCGGGCCTCC) | 0.0269
TCCTACGCATGGACCGGTTTTCCCGGTAATCCGTATTTGAA (site TCCTACGCTTT) | 0.0256
TCCTACTCATGGACCGGTTTTCCCGGTAATCCGTATTTGCA (site TCATACTCTTG) | 0
TCCTACTCATGGACCGGTTTTCCCGGTAATCCGTATTTGCA (site TCCTACTCTTG) | 0
TCCTACTCATGGACCGGTTTTCCCGGTAATCCGTATTTGCA (site TCGTACTCTTG) | 0
TCCTACTCATGGACCGGTTTTCCCGGTAATCCGTATTTGCA (site TCTTACTCTTG) | 0
TCCTAGGCATGGACCGGTTTTCCCGGTAATCCGTATTTGGT (site TACTAGGCTAC) | 0.0272

Sequence | recombinant UMI read abundance (log10)
TCCTAGGCATGGACCGGTTTTCCCGGTAATCCGTATTTGGT (site TCCTAGGCTAC) | 0.0125
TCCTAGGCATGGACCGGTTTTCCCGGTAATCCGTATTTGGT (site TGCTAGGCTAC) | 0.0178
TCCTAGGCATGGACCGGTTTTCCCGGTAATCCGTATTTGGT (site TTCTAGGCTAC) | 0.0363
TCCTGCCCATGGACCGGTTTTCCCGGTAATCCGTATTTGCT (site TCCTGCCCTAG) | 0
TCCTGGCCATGGACCGGTTTTCCCGGTAATCCGTATTTGTG (site TCCTGGCCTCA) | 0.00405
TCCTGTTCATGGACCGGTTTTCCCGGTAATCCGTATTTGTC (site TCCTGTTCTGA) | 0
TCCTTCTCATGGACCGGTTTTCCCGGTAATCCGTATTTGGG (site ACCTTCTCTCC) | 0.0101
TCCTTCTCATGGACCGGTTTTCCCGGTAATCCGTATTTGGG (site CCCTTCTCTCC) | 0.00366
TCCTTCTCATGGACCGGTTTTCCCGGTAATCCGTATTTGGG (site GCCTTCTCTCC) | 0.104
TCCTTCTCATGGACCGGTTTTCCCGGTAATCCGTATTTGGG (site TCCTTCTCTCC) | 0.0162
TCCTTTACATGGACCGGTTTTCCCGGTAATCCGTATTTGTT (site TCCTTTACTAA) | 0.0163
TCGAACGCATGGACCGGTTTTCCCGGTAATCCGTATTTGCG (site TCGAACGCTCG) | 0.00434
TCGAAGACATGGACCGGTTTTCCCGGTAATCCGTATTTGCA (site AGGAAGACTTG) | 0.13
TCGAAGACATGGACCGGTTTTCCCGGTAATCCGTATTTGCA (site TCGAAGACTTG) | 1.88
TCGAATACATGGACCGGTTTTCCCGGTAATCCGTATTTGCA (site TAGAATACTTG) | 0.211
TCGAATACATGGACCGGTTTTCCCGGTAATCCGTATTTGCA (site TCGAATACTTG) | 0
TCGAATACATGGACCGGTTTTCCCGGTAATCCGTATTTGCA (site TGGAATACTTG) | 0.0214
TCGAATACATGGACCGGTTTTCCCGGTAATCCGTATTTGCA (site TTGAATACTTG) | 0
TCGAATCCATGGACCGGTTTTCCCGGTAATCCGTATTTGAG (site TCGAATCCTCT) | 0.516
TCGACACCATGGACCGGTTTTCCCGGTAATCCGTATTTGGA (site TCGACACCTTC) | 0.0336
TCGACTTCATGGACCGGTTTTCCCGGTAATCCGTATTTGTG (site TCGACTTCTCA) | 0
TCGATTACATGGACCGGTTTTCCCGGTAATCCGTATTTGGA (site TCGATTACTTC) | 0.277
